# Assay results from patent US8541461B2 (Astex Therapeutics Limited, priority 2005, dated 2013).
# Like-named read-outs stand apart in the source and are kept apart here.
# Experiments:
# PKA catalytic domain = molecular target: T1, PKA catalytic domain (Homo sapiens, UniProt P17612); experiment: Measurement of PKA kinase inhibitory activity (IC50); type: biochemical
# T1 construct: PKA catalytic domain from Upstate Biotechnology (#14-440); purchased Upstate Biotechnology 14-440
# Protocol: A final concentration of 1 nM enzyme is used in a buffer that includes 20 mM MOPS pH 7.2, 40 μM ATP/γ^33P-ATP and 5 μM substrate. […] The reaction is allowed to proceed for 20 minutes before addition of excess orthophosphoric acid to quench activity. Unincorporated γ^33P-ATP is then separated from phosphorylated proteins on a Millipore MAPH filter plate. The plates are washed, scintillant is added and the plates are then subjected to counting on a Packard Topcount.
# [1] = molecular target: T2, PKB-PIF fusion protein (protein kinase B) (Homo sapiens, UniProt P31751); experiment: Measurement of PKB kinase inhibitory activity (IC50); type: biochemical
# T2 construct: PIF (fusion partner); made in house
# T2 sequence (P31751 with tags, fused parts or gaps limits assumed): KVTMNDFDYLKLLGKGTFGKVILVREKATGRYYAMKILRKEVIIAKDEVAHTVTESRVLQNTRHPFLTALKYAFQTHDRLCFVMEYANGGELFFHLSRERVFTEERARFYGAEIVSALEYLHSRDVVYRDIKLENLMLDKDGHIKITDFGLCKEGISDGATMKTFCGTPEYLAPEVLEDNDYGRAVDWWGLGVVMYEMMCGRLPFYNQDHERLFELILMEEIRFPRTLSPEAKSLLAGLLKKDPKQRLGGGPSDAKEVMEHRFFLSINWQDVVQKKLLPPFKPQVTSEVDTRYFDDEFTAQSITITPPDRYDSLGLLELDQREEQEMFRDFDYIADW
# Protocol: The reaction is allowed to proceed for 20 minutes before addition of excess orthophosphoric acid to quench activity. The reaction mixture is transferred to a phosphocellulose filter plate where the peptide binds and the unused ATP is washed away. After washing, scintillant is added and the incorporated activity measured by scintillation counting.
# [2] = 1 nM enzyme, 40 μM ATP/γ33P-ATP, 5 μM substrate, read-out: PKA IC50
# [3] = 0.6 nM enzyme, 30 μM ATP/γ33P-ATP, 25 μM AKTide-2T substrate, read-out: PKB IC50
SMILES,IC50 (PKA catalytic domain; [2]),"IC50 [1, 3]",IC50 (PKA catalytic domain),IC50 [1]
"CNCC(Oc1ccccc1)c1ccc(-c2cn[nH]c2)cc1 (stereo not shown) [Example 48, Methyl-{2-phenoxy-2-[4-(1H-pyrazol-4-yl)-phenyl]-ethyl}-amine]",< 1000 nM,< 5000 nM,,
"CNCCC(c1ccc(F)cc1)c1ccc(-c2cn[nH]c2)cc1 (stereo not shown) [Example 54, {3-(4-Fluoro-phenyl)-3-[4-(1H-pyrazol-4-yl)-phenyl]-propyl}-methyl-amine]",< 1000 nM,< 1000 nM,,
"Clc1ccc(C2(c3ccc(-c4cn[nH]c4)cc3)CNCCO2)cc1 (stereo not shown) [Example 79, 2-(4-Chloro-phenyl)-2-[4-(1H-pyrazol-4-yl)-phenyl]-morpholine]",,,< 1000 nM,< 1000 nM
"COCCOc1ccc(C2(c3ccc(-c4cn[nH]c4)cc3)CCNCC2)cc1 [Example 67, 4-[4-(2-Methoxy-ethoxy)-phenyl]-4-[4-(1H-pyrazol-4-yl)-phenyl]-piperidine]",< 1000 nM,< 5000 nM,,
"CNCC(c1ccc(OC)cc1)c1ccc(-c2cn[nH]c2)cc1 (stereo not shown) [Example 46, {2-(4-Methoxy-phenyl)-2-[4-(1H-pyrazol-4-yl)-phenyl]-ethyl}-methyl-amine]",< 1000 nM,< 1000 nM,,
"N#Cc1ccc(C2(c3ccc(-c4cn[nH]c4)cc3)CCNCC2)cc1 [Example 81, 4-{4-[4-(1H-Pyrazol-4-yl)-phenyl]-piperidin-4-yl}-benzonitrile]",< 1000 nM,< 1000 nM,,
"CNCC(O)(c1ccc(Cl)cc1)c1ccc(-c2cn[nH]c2)cc1 (stereo not shown) [Example 83, 1-(4-Chloro-phenyl)-2-methylamino-1-[4-(1H-pyrazol-4-yl)-phenyl]-ethanol]",< 1000 nM,< 1000 nM,,
"NCCC(c1ccc(-c2cn[nH]c2)cc1)c1cccc(Cl)c1 (stereo not shown) [Example 90, 3-(3-Chloro-phenyl)-3-[4-(1H-pyrazol-4-yl)-phenyl]-propylamine]",< 1000 nM,< 1000 nM,,
"NCC(c1ccccc1)c1ccc(-c2cn[nH]c2)cc1 (stereo not shown) [Example 1, 2-Phenyl-2-[4-(1H-pyrazol-4-yl)-phenyl]-ethylamine]",,,< 1000 nM,< 1000 nM
"COc1ccc(C(CCN)c2ccc(-c3cn[nH]c3)cc2)cc1 (stereo not shown) [Example 77, 3-(4-Methoxy-phenyl)-3-[4-(1H-pyrazol-4-yl)-phenyl]-propylamine]",,< 1000 nM,,
"Clc1ccc(C(c2ccc(-c3cn[nH]c3)cc2)N2CCNCC2)cc1 (stereo not shown) [Example 57, 1-{(4-Chloro-phenyl)-[4-(1H-pyrazol-4-yl)-phenyl]-methyl}-piperazine]",,< 1000 nM,,
"CNCC(c1ccc(Oc2cc(C(N)=O)ccn2)cc1)c1ccc(-c2cn[nH]c2)cc1 (stereo not shown) [Example 70, 2-(4-{2-Methylamino-1-[4-(1H-pyrazol-4-yl)-phenyl]-ethyl}-phenoxy)-isonicotinamide]",,< 50000 nM,,

# The next lines start with results.
IC50 (PKA catalytic domain; [2]),"IC50 [1, 3]",SMILES,IC50 (PKA catalytic domain),IC50 [1]
< 1000 nM,< 1000 nM,"Oc1ccc(C2(c3ccc(-c4cn[nH]c4)cc3)CCNCC2)cc1 [Example 63, 4-{4-[4-(1H-Pyrazol-4-yl)-phenyl]-piperidin-4-yl}-phenol]",,
< 1000 nM,,"NCC(c1ccc(Cl)cc1)c1ccc(-c2cn[nH]c2)cc1 (stereo not shown) [Example 4, 2-(4-Chloro-phenyl)-2-[4-(1H-pyrazol-4-yl)-phenyl]-ethylamine]",,
,< 1000 nM,"Clc1ccc(C(CCN2CCCC2)c2ccc(-c3cn[nH]c3)cc2)cc1 (stereo not shown) [Example 50, 4-{4-[1-(4-Chloro-phenyl)-3-pyrrolidin-1-yl-propyl]-phenyl}-1H-pyrazole]",,
,< 5000 nM,"CNCCC(c1ccc(-c2cn[nH]c2)cc1)c1ccc(N(C)C)cc1 (stereo not shown) [Example 53, Dimethyl-(4-{3-methylamino-1-[4-(1H-pyrazol-4-yl)-phenyl]-propyl}-phenyl)-amine]",,
,< 1000 nM,"CNCC(c1ccc(F)cc1)c1ccc(-c2cn[nH]c2)cc1 (stereo not shown) [Example 65, {2-(4-Fluoro-phenyl)-2-[4-(1H-pyrazol-4-yl)-phenyl]-ethyl}-methyl-amine]",,
,< 1000 nM,"NCCC(c1ccc(-c2cn[nH]c2)cc1)c1ccc(Cl)c(Cl)c1 (stereo not shown) [Example 13, 3-(3,4-Dichloro-phenyl)-3-[4-(1H-pyrazol-4-yl)-phenyl]-propylamine]",,
